According to patent US6190664A, “Depigmenting cosmetic skin-care composition and use thereof” (C 3 D, priority 1995, dated 2001):

System: Tyrosinase
Experiment: In vitro inhibition of tyrosinase (Dopachrome at 475 nm, substrate L-Dopa)
Type: biochemical
Details: for % of activity: controls = 100%
Procedure: The following test then allows to measure the inhibition of tyrosinase while dosing Dopachrome which is a coloured compound which may spectroscopically be dosed 475 nm.
In order to study the influence of some compounds on the enzymatic activity of tyrosinase, the enzymatic kinetics are achieved.
The reaction is performed at 25° C. in phosphate buffer pH7. Tyrosinase is brought together with its substrate L-Dopa. In the reaction medium it may be added the molecule to be studied.
One compares further the variation in optical density per minute of the test (in the presence of the molecule to be studied) to that of the controls (without molecule). The influence of the molecule on tyrosinase activity will be deduced. The results are then expressed as a percentage of activity knowing that the controls show 100% activity.
Appearance of Dopachrome at 475 nm is followed for 3 minutes.

Row | Structure (SMILES) | % of inhibition (tested concentration 1 mg/ml) | % of activity (tested concentration 1 mg/ml) | % of inhibition (tested concentration 4 mg/ml) | % of activity (tested concentration 4 mg/ml) | % of inhibition (tested concentration 8 mg/ml) | % of activity (tested concentration 8 mg/ml) | % of inhibition (tested concentration 16 mg/ml) | % of activity (tested concentration 16 mg/ml) | % of inhibition (tested concentration 10 mg/ml) | % of activity (tested concentration 10 mg/ml)
1 | CCCCCCCCCCCCCCCC(=O)OC[C@H](O)[C@H]1OC(=O)C(O)=C1O [Ascorbyl Palmitate] | 66% | 34% | – | – | – | – | – | – | – | –
2 | Oc1ccc(O)cc1 [Hydroquinone] | – | – | 0% | 241.9% | 0% | 229.41% | 0% | 112.53% | – | –
3 | O=c1cc(CO)occ1O [Kojic acid] | 71% | 29% | – | – | – | – | – | – | 80% | 20%
